# Test results taken from patent publication US6258790A, “Antisense modulation of integrin α4 expression” (Isis Pharmaceuticals, Inc., priority 1999, dated 2001).
# Experiments:
# [1] = tested on: Mouse collagen-induced arthritis (CIA); assay: Mouse collagen-induced arthritis (CIA) model for rheumatoid arthritis; type: in vivo, mouse (DBA/1LacJ)
# Source text: A model for human rheumatoid arthritis has been developed wherein mice are immunized with bovine type II collagen. Anderson et al., J. Immunol. 1991 147, 1189-1193, citing Trentham et al., J. Exp. Med 1977, 146, 857. Swelling and inflammation of the joints follows in approximately 3 weeks, with joint distortion and ankylosis typical of rheumatoid arthritis. This model has been used to study the effects of the antisense oligonucleotide 17044, targeted to mouse integrin α4, on arthritis in mice.
# DBA/1LacJ mice were obtained from Jackson Laboratory, Bar Harbor, Me. Female mice aged 6 to 8 weeks were used and assigned to groups, ten mice per group. On day 0 mice were immunized at the base of the tail with 100 ug of bovine type II collagen which was emulsified in Complete Freund's Adjuvant (CFA). On day 7, a second booster dose of collagen was administered by the same route. On day 14 the mice were injected subcutaneously with 100 ug of lipopolysaccharide (LPS). Weights were recorded weekly. Mice were inspected daily for the onset of CIA, which is characterized by erythema and edema. Upon the onset of the disease, paw widths and rear ankle widths of affected and unaffected joints were measured three times a week using a constant tension caliper. In addition, limbs were clinically evaluated and graded 0-4, where 0=normal; 1=one digit swollen; 2=inflammation present in more than one digit; 3=joint distortion with or without inflammation; and 4=ankylosis, detected by joint manipulation. The progression of all measurements was recorded to day 50. At the end of the observation period for each mouse, all paws were removed and examined histologically.
# The oligonucleotide, the positive control drug (cyclophosphamide, 5 mg/kg), and the vehicle were administered daily to each mouse intraperitoneally (IP) starting on day -3 and continuing for the duration of the study. Each animal received 10 mg/kg as a bolus daily dose.
# In a preliminary study, a single 10 mg/kg daily dose of […] was administered from the time of disease induction to the conclusion of the study 50 days later. Arthritis incidence was reduced from 70 to 30% in the ISIS 17044-treated group.
# human integrin α4 = assay: Inhibition of human integrin α4 protein levels by antisense oligonucleotides (LIPOFECTIN, flow cytometry with CD49d-FITC) in A375 melanoma cells; type: cell-based
# [2] = tested on: Jurkat T-cell adherence to HUVEC; assay: Adherence of Jurkat T-cells to HUVEC (flow cytometry); type: cell-based, human
# Procedure: A similar adherence assay was performed using Jurkat T-cells instead of melanoma cells, again detecting adherence to HUVEC. Because Jurkat cells are smaller and less complex, they can be separated from HUVEC by gating on the basis of differences in forward light scatter and side scatter. For 5000 HUVEC events, adherent Jurkat cells were quantitated. At oligonucleotide concentrations of 1, 3, 10, and 30 μM ISIS 107248, adherence of Jurkat cells to HUVEC was 0, 12%, 32% and 63%, respectively.
# [3] = Table 23, mice with arthritis, 10 mg/kg
substance,measurement,setting,value
"17044 (CCGCAGCCATGCGCTCTTGG; phosphorothioate, 2'-MOE/deoxy, further chemistry not given here) [compound 17044]",# Paws/Mouse (mean number of affected paws at termination),"[1]; Table 22, 10 mg/kg daily IP",0.7 ± 0.4
same,Mean Day of Onset,"[1]; Table 22, 10 mg/kg daily IP",20.3 ± 1.9 days
same,Peak Day of Inflamm. (day from onset to time of maximum swelling),"[1]; Table 22, 10 mg/kg daily IP",1.6 ± 0.8 days
same,Severity (total clinical score/total number of mice in group),"[1]; Table 22, 10 mg/kg daily IP",2.1 ± 1.1
same,Mean # of Paws Involved,[1]; [3],2.3 ± 0.3
same,Mean Clinical Score,[1]; [3],7.0 ± 1.0
same,Arthritis incidence,"[1]; preliminary study, single 10 mg/kg daily dose, reduced from 70",30%
same,% Control,"human integrin α4; Table 4, 10 nM",86%
same,% Inhib.,"human integrin α4; Table 4, 10 nM",14%
same,% Control,"human integrin α4; Table 4, 30 nM",73%
same,% Inhib.,"human integrin α4; Table 4, 30 nM",27%
same,% Control,"human integrin α4; Table 4, 100 nM",60%
same,% Inhib.,"human integrin α4; Table 4, 100 nM",40%
same,% Control,"human integrin α4; Table 4, 300 nM",58%
same,% Inhib.,"human integrin α4; Table 4, 300 nM (highest dose)",42%
same,% Control,"human integrin α4; Table 6, 10 nM",97%
same,% Control,"human integrin α4; Table 6, 30 nM",84%
same,% Inhib.,"human integrin α4; Table 6, 30 nM",16%
same,% Control,"human integrin α4; Table 6, 100 nM",68%
same,% Inhib.,"human integrin α4; Table 6, 100 nM",32%
same,% Control,"human integrin α4; Table 6, 300 nM",39%
same,% Inhib.,"human integrin α4; Table 6, 300 nM (highest dose)",61%
107248 (antisense CTGAGTCTGTTTTCCATTCT; chemistry not given here) [compound 107248],adherence of Jurkat cells to HUVEC,[2]; 1 μM,0%
same,adherence of Jurkat cells to HUVEC,[2]; 3 μM,12%
same,adherence of Jurkat cells to HUVEC,[2]; 10 μM,32%
same,adherence of Jurkat cells to HUVEC,[2]; 30 μM,63%
same,% Control,"human integrin α4; Table 24, A375 cells, lipofectin, as Example 8",34%
